Data on 31 compounds can be found in US6531469B1, “Substituted 1-(4-piperidyl)-3-(aryl) isothioureas their preparation and their therapeutic application” (Pierre Fabre Medicament, priority 1999, dated 2003).

The term melting point denotes the temperature of the solid-liquid transition. For orientation: inhibition means how much of the control response was suppressed. High values mean a response far below the control, low ones a response near the control. The term % inhibition denotes the change of the read-out against control, counted positive when it falls. A lower % inhibition goes with a response near the control.

In data set [1] the test system is infused isolated guinea pig heart. The experiment in a line: Inhibition of diastolic contracture induced by global ischemia of infused isolated guinea pig heart (Langendorff). Particulars: global ischemia 50 min, relative to vehicle group; for inhibition at 1 µM: Cavia porcellus, 50 min. An excerpt:
(§1) The compounds of the present invention of formula I and the therapeutically acceptable salts thereof have advantageous pharmacological properties. These derivatives are active in vitro, on cardiomyocytes, by inhibiting the diastolic contracture induced with veratrine, on rat isolated left atrium. They also abolish the diastolic contracture induced by the global ischemia of infused isolated guinea pig heart according to the Langendorff technique. These compounds are also active in vivo, in reinfusion ischemia in anesthetized rabbits: they inhibit the electrical disturbances in the ECG which are caused by reinfusion ischemia, without any appreciable hemodynamic effect, and are not cardiac depressants. Such compounds are useful preventively or curatively in the treatment of coronaropathies, cardiac and cerebral ischemia in all their forms and in the treatment of atherosclerosis, cardiac insufficiency, pain, migraine and epilepsy.
2) Inhibition of the diastolic contracture induced by the global ischemia of infused isolated guinea pig heart is carried out according to the technique described by Le Grand B. et al. (Am. J. Physiol. 269, H533-H540 (1995)). The guinea pig hearts collected are infused with a modified Krebs solution and, after stabilization for 20 minutes, the test compound dissolved in water or in aqueous 1% DMSO solution is added. After 15 minutes, global ischemia is induced by stopping the coronary infusion for 50 minutes, followed by reinfusion for 1 h. The inhibition of ischemic contracture, in the presence of the compounds of the present invention, is measured relative to that obtained in the vehicle group. The results are given in Table II by way of non-limiting example at a concentration of 1 μM.

The subject of the next data set is rat isolated left atrium. The experiment in a line: Inhibition of the contracture with veratrine, rat isolated left atrium. The note with it: veratrine-induced contracture, 10^−7 M of test compound.
Description: as §1
1) Inhibition of the contracture with veratrine, of rat isolated left atrium, was carried out according to the technique of Le Grand et al. (Naunyn—Schmiedeberg's Arch Pharmacol (1993) 348 p 184-190). The results are given in Table I. The percentages of inhibition are relative to a concentration of 10^−7 M of test compound.

The subject of another data set is anesthetized rabbits. The experiment in a line: Ischemia-reinfusion in anesthetized rabbits, oral route. Format: in vivo. The note with it: anesthetized rabbit.
Description: as §1
The compounds of the present invention are also active via the oral route in the test of ischemia-reinfusion in anesthetized rabbits, according to the method of Verscheure et al. (J. Cardiovasc Pharmacol (1995) 25 p 126-133). The results for the compounds of Examples 6 and 14 are given in Table III below, by way of non-limiting example: […]

Structures can show the parent of a compound that is named as a salt.

With `CN(C1=Nc2ccccc2CS1)C1CCN(CCCCCOCc2ccc(F)cc2)CC1.O=C(O)/C=C/C(=O)O`, the melting point is 167 °C.

As for `CN(C1=Nc2ccccc2CS1)C1CCN(CCCCCOCc2ccc(F)c(F)c2)CC1.O=C(O)/C=C/C(=O)O`, the melting point was 169 °C.

`CN(C1=Nc2ccccc2CS1)C1CCN(CCCCOCc2ccc(F)c(F)c2)CC1.O=C(O)/C=C/C(=O)O` returned a melting point of 170 °C.

Turning to `CN(C1=Nc2ccccc2CS1)C1CCN(CCCOCc2ccc(F)c(F)c2)CC1.O=C(O)/C=C/C(=O)O`, the melting point was 168 °C.

`CN(C1=Nc2ccccc2CS1)C1CCN(CCCCOCCc2ccc(F)c(F)c2)CC1.O=C(O)/C=C/C(=O)O` came in with a melting point of 163 °C.

`COc1ccc(COCCCCCN2CCC(N(C)C3=Nc4ccccc4CS3)CC2)cc1.O=C(O)/C=C/C(=O)O` gave a melting point of 163 °C.

In the case of `COc1ccc(COCCCCN2CCC(N(C)C3=Nc4ccccc4CS3)CC2)cc1.O=C(O)/C=C/C(=O)O`, the melting point stood at 165 °C.

Regarding `COc1ccc(COCCCN2CCC(N(C)C3=Nc4ccccc4CS3)CC2)cc1.O=C(O)/C=C/C(=O)O`, the melting point amounted to 166 °C.

`COc1ccc(CCOCCCCN2CCC(N(C)C3=Nc4ccccc4CS3)CC2)cc1.O=C(O)/C=C/C(=O)O` came in with a melting point of 156 °C.

Turning to `COc1ccc(CCOCCCN2CCC(N(C)C3=Nc4ccccc4CS3)CC2)cc1.O=C(O)/C=C/C(=O)O`, the melting point came to 155 °C.

Consider `COc1ccc(CCOCCN2CCC(N(C)C3=Nc4ccccc4CS3)CC2)cc1.O=C(O)/C=C/C(=O)O`, for which the melting point is 152 to 153 °C.

On to `CN(C1=Nc2ccccc2CS1)C1CCN(CCOCc2ccccc2)CC1.O=C(O)/C=C/C(=O)O`, for which the melting point was in the range of 166 to 167 °C.

`CN(C1=Nc2ccccc2CS1)C1CCN(CCCOCCc2ccccc2)CC1.O=C(O)/C=C/C(=O)O` displayed a melting point of 166 °C.

`COc1ccc(CCOCC(O)CN2CCC(N(C)C3=Nc4ccccc4CS3)CC2)cc1.O=C(O)/C=C/C(=O)O` (stereo not drawn) registered a melting point of 132 to 133 °C.

Take `Cc1ccc2c(c1)CSC(N(C)C1CCN(CCCOCCc3ccc(F)cc3)CC1)=N2.O=C(O)/C=C/C(=O)O`: the melting point lay in the range of 169 to 172 °C.

Compound `CN(C1=Nc2ccc(Cl)cc2CS1)C1CCN(CCCOCCc2ccc(F)cc2)CC1.O=C(O)/C=C/C(=O)O` gave a melting point of 167 to 170 °C.

`COc1cc2c(c(OC)c1OC)N=C(N(C)C1CCN(CCCOCCc3ccc(F)cc3)CC1)SC2.O=C(O)/C=C/C(=O)O`: the melting point was found to be 68 °C.

Take `CN(C1=Nc2ccccc2CS1)C1CCN(CCCOCc2ccc(F)cc2)CC1.O=C(O)/C=C/C(=O)O`: the melting point lay within 163 to 164 °C.

As to `CN(C1=Nc2ccccc2CS1)C1CCN(CCOCc2ccc(F)cc2)CC1.O=C(O)/C=C/C(=O)O`, the melting point lay within 160 to 161 °C.

`CN(C1=Nc2ccccc2CS1)C1CCN(CCCOCCCc2ccc(F)cc2)CC1.O=C(O)/C=C/C(=O)O`: the melting point was found to be 176 °C.

For `CN(C1=Nc2ccccc2CS1)C1CCN(CCCOCCc2ccc(F)cc2)CC1` (as salt: fumarate) [Example 6, N-Methyl-N-[1-[3-[2-(4-fluorophenyl)ethoxy]propyl]-4-piperidyl]-4H-3,1-benzothiazin-2-amine Hydrogen Fumarate], the melting point is 163 to 164 °C.

`CN(C1=Nc2ccccc2CS1)C1CCN(CCOCCc2ccc(F)cc2)CC1` (as salt: fumarate) [Example 9, N-Methyl-N-[1-[2-[2-(4-fluorophenyl)ethoxy]ethyl]-4-piperidyl]-4H-3,1-benzothiazin-2-amine] registered a melting point of 145 to 146 °C.

In turn, `Fc1ccc(CCOCCCN2CCC(NC3=Nc4ccccc4CO3)CC2)cc1` (as salt: hydrochloride) (hydrate or solvate) [Example 30, N-[1-[3-[2-(4-Fluorophenyl)ethoxypropyl]-4-piperidyl]-4H-3,1-benzoxazin-2-amine Dihydrochloride Hydrate] had a melting point of 158 to 159 °C.

In turn, `CN(C1=Nc2ccccc2CS1)C1CCN(CCCCOc2ccc(F)c(F)c2)CC1` [Control, N-Methyl-N-[1-[4-(3,4-difluorophenoxy)butyl]-4-piperidyl)-4H-3,1-benzothiazin-2-amine] gave an inhibition at 1 µM in data set [1] of 48%. Moreover, the inhibition at 0.1 µM in the data set with rat isolated left atrium stood at 26%. Further, in the data set with anesthetized rabbits (0.63 mg/kg p.o.), the “% change in arterial pressure” value was 5%, the “% change in heart rate” value came to 0%, the “% inhibition of over-increase of ST segment” value is on record as 31% and the “Number of animals with reinfusion arrhythmia” value (“Number of animals” for short) was 1/5.

For `CN(C1=Nc2ccccc2CS1)C1CCN(CCCCOCCc2ccc(F)cc2)CC1.O=C(O)/C=C/C(=O)O` [Example 5, N-Methyl-N-[1-[4-[2-(4-fluorophenyl)ethoxy]butyl]-4-piperidyl]-4H-3,1-benzothiazin-2-amine Hydrogen Fumarate], the melting point lay in the range of 173 to 174 °C. Further, the inhibition at 0.1 µM in the data set with rat isolated left atrium is 63%.

In data set [1], `CN(C1=Nc2ccccc2CS1)C1CCN(CCCOCCc2ccc(F)cc2)CC1` [Example 6, N-Methyl-N-[1-[3-[2-(4-fluorophenyl)ethoxy]propyl]-4-piperidyl]-4H-3,1-benzothiazin-2-amine Hydrogen Fumarate] showed an inhibition at 1 µM of 79%. For the same compound, in the data set with rat isolated left atrium, the inhibition at 0.1 µM amounted to 41%. In the data set on anesthetized rabbits (0.63 mg/kg p.o.), the “% change in arterial pressure” value amounted to 0%, the “% change in heart rate” value was −7%, the “% inhibition of over-increase of ST segment” value was found to be 42% and the “Number of animals” value is 3/5.

Regarding `CN(C1=Nc2ccccc2CS1)C1CCN(CCCOCCc2ccc(F)c(F)c2)CC1.O=C(O)/C=C/C(=O)O` [Example 14, N-Methyl-N-[1-[3-[2-(3,4-difluorophenyl)ethoxy]propyl]-4-piperidyl]-4H-3,1-benzothiazin-2-amine Hydrogen Fumarate], the melting point is 162 °C. Further, the inhibition at 1 µM in data set [1] came out at 77%. In the data set with rat isolated left atrium, this compound gave an inhibition at 0.1 µM of 32%. In the data set with anesthetized rabbits (0.63 mg/kg p.o.), the “% change in arterial pressure” value came to 3%, the “% change in heart rate” value is −5%, the “% inhibition of over-increase of ST segment” value is reported as 83% and the “Number of animals” value was 0/5.

Compound `CN(c1nc2ccccc2s1)C1CCN(CCCCOc2ccc(F)cc2)CC1` [Example R56865, N-(1-(4-(4-fluorophenoxy)butyl)4-piperidyl)-N-methyl-2-benzothiazolamine] gave an inhibition at 0.1 µM with rat isolated left atrium of 32%. In the data set with anesthetized rabbits (2.5 mg/kg p.o.), the “% change in arterial pressure” value turned out to be 27%, the “% change in heart rate” value was found to be 0%, the “% inhibition of over-increase of ST segment” value is given as 0% and the “Number of animals” value is recorded as 2/5. Moreover, in the data set on anesthetized rabbits (10 mg/kg p.o.), the “% change in arterial pressure” value is listed as 15%, the “% change in heart rate” value stood at 5%, the “% inhibition of over-increase of ST segment” value is 100% and the “Number of animals” value is 0/5.

`CS(=O)(=O)c1cc(C(=O)NC(=N)N)ccc1N1CCCCC1.Cl` [HOE 694, 3-(Methylsulfonyl-4-piperidinobenzoyl)guanidine hydrochloride, reference compound]: the “% diastolic contracture inhibition at 1 μM” value in data set [1] is 17%.

Compound `CN(c1nc2ccccc2s1)C1CCN(CC(O)COc2ccc(F)cc2)CC1` (stereo not drawn) [Sabeluzole] showed an inhibition at 0.1 µM in the data set with rat isolated left atrium of 5%. In the data set on anesthetized rabbits (10 mg/kg p.o.), the “% change in arterial pressure” value was 12%, the “% change in heart rate” value is on record as 0%, the “% inhibition of over-increase of ST segment” value turned out to be 34% and the “Number of animals” value is 3/4.

For the compound “N-Methyl-N-[1-[2-hydroxy-3-(4-fluorophenylmethoxy)-propyl]-4-piperidyl]-4H-3,1-benzothiazin-2-amine Hemifumarate [Example 23]”, the “% inhibition at 10^−7 M” value in the data set with rat isolated left atrium was 35%.
